Measurements as given in paper PMC10418599, “Quercetins, Chlorogenic Acids and Their Colon Metabolites Inhibit Colon Cancer Cell Proliferation at Physiologically Relevant Concentrations” (International Journal of Molecular Sciences, 2023).

Tests used:
Caco-2 cell line [1] = test: Anti-proliferative assay (MTS cell proliferation assay); type: cell-based, Human; details: maximum tested concentration 200 μmol/L
Description: (§1) Human colon cancer Caco-2 and SW480 cell lines were cultured and grown as previously reported. […] Incubation was carried out for 24, 48 and 72 h. Data were compared with a control solution containing 0.5% DMSO in cell medium and representing 100% proliferation. In addition, six different mixes were prepared to simulate the simultaneous presence of parent phenolic compounds and metabolites by mimicking the possible human inter-individual variability in colon metabolism of phenolic compounds. Two sets of mixes were prepared to consider the colon metabolism of quercetins and chlorogenic acids. […] For each set of mixtures (QUE and CGA mixtures), three different mixes were formulated. One set of mixes mimicked the low-producers metabotype and contained 90% parent compounds and 10% metabolites (mixes QUE-LP and CGA-LP). Another set of mixes was prepared to simulate the high-producers metabotype and contained 10% parent compounds and 90% metabolites (mixes QUE-HP and CGA-HP). Finally, a third set of mixes was prepared with equimolar amounts of all the compounds (mixes QUE-EQ and CGA-EQ). […] Cell proliferation was assessed by the MTS assay as previously described. […] The IC50 values were calculated through non-linear regression analysis by plotting the base-10 logarithm of the phenolic compound concentration vs. the percentage of inhibition.

SW480 cell line [2] = test: as above; type: cell-based, Human; details: for IC50: maximum tested concentration 200 μmol/L
Description: as §1

[3] = Cell metabolism of phenolic compounds (UHPLC-HR-MS analysis of cell media); type: in vitro ADME, Human; details: human, SW480 cells; SW480, 72 h
Description: (§2) To analyze the metabolism of phenolic compounds by Caco-2 and SW480 cells, the cell culture media were withdrawn after 0, 24, 48 and 72 h of incubation. Phenolic compounds were extracted from the culture media by following the procedure reported in Sala et al.. Briefly, 100 μL of cold methanol was mixed with 100 μL of cell media and vortexed for 1 min. The mixture was then centrifuged at 10,000× g (4 °C, 5 min) and the supernatant was injected, after appropriate dilution, in an ultra-high-performance liquid chromatography high-resolution mass spectrometry system (UHPLC-HR-MS).
(§3) The HR-MS system consisted of a UHPLC Ultimate 3000 separation module, equipped with a C18 column (Acquity UPLC HSS C18 reversed phase, 2.1 × 100 mm, 1.8 μm particle size, Waters, Milan, Italy) and coupled with a Q Exactive Hybrid Quadrupole-Orbitrap Mass Spectrometer (Thermo Scientific, San Jose, CA, USA). Mobile phases consisted of a mixture of water containing formic acid (0.1%) (mobile phase A) and acetonitrile containing formic acid (0.1%) (mobile phase B). The gradient began at 1% B, reaching 40% B over 20 min. To wash the column, the mobile phase B concentration was raised to 99% over 6 min and kept at 99% for 3 min before returning to the initial conditions. The MS and MS/MS conditions are fully described in Martini et al..
(§4) Quantification was carried out by building external calibration curves with the available standard compounds.

SW480 cell line [4] = test: as above; type: in vitro ADME, Human; details: for Concentration of substrate in cell medium: initial 50 μmol/L
Description: as §2, §3, §4

in vitro = in vitro ADME; details: human
Description: as §2, §3, §4

Caco-2 cell line [5] = test: in vitro; type: in vitro ADME; details: human; for Concentration of substrate in cell medium: 50 μmol/L
Description: as §2, §3, §4

[6] = cited from earlier work; for Maximum value in human fecal water: after raspberry supplementation, ref 49 (Gill et al.)
SW480 cells = test: Cell cycle analysis by flow cytometry; type: cell-based, Human; details: 72 h, concentration equal to the IC50 value, vs control
Description: Cell cycle analysis was carried out in both Caco-2 and SW480 cell lines as previously reported by Nicoletti et al.. Cells were seeded in 6-well plates at a density of 4000 and 8000 cells/cm^2 for Caco-2 and SW480, respectively.
After 72 h of incubation, the cells were washed with PBS, detached from the 6-well plates with 500 μL of trypsin and resuspended in 1000 μL of medium. Subsequently, they were centrifuged at 3500 rpm for 5 min. After removing the supernatant, the pellet was resuspended with 400 μL of Nicoletti’s solution (sodium citrate 0.1%, Triton X-100 0.1% and 20 μg/mL propidium iodide). After 15 min of incubation at 4 °C in the dark, cell cycle analysis was performed with an Epics XL MCL flow cytometer (Beckman Coulter, Brea, CA, USA).
The data were compared with a control solution containing 0.5% DMSO in the cell medium.

[7] = set-up: method as in PMID 33350133, doi:10.1002/fft2.50; details: of the ingested dose; cited from earlier work
[8] = Homo sapiens, Caco-2, 48 h of incubation
[9] = Homo sapiens, Caco-2, 72 h of incubation
[10] = Homo sapiens, SW480, 48 h of incubation
[11] = Homo sapiens, SW480, 72 h of incubation
[12] = no dietary restriction or supplementation, ref 47 (Jenner et al.)

Row | IC50 (Caco-2 cell line [1]; [8]) | IC50 (Caco-2 cell line [1]; [9]) | IC50 (SW480 cell line [2]; [10]) | IC50 (SW480 cell line [2]; [11]) | recovery at 72 h [3] | Concentration of substrate in cell medium (SW480 cell line [4]; SW480, 24 h) | Concentration of substrate in cell medium (SW480 cell line [4]; SW480, 48 h) | Concentration of substrate in cell medium (SW480 cell line [4]; SW480, 72 h) | recovery at 72 h (in vitro) | Concentration of substrate in cell medium (Caco-2 cell line [5]; 24 h) | Concentration of substrate in cell medium (Caco-2 cell line [5]; 48 h) | Concentration of substrate in cell medium (Caco-2 cell line [5]; 72 h) | Decrease in IC50 value from 48 to 72 h (SW480 cell line [2]; SW480) | Structure (SMILES) | Maximum value in human fecal water [6] | Increase in the number of SW480 cells in the S phase (SW480 cells) | other results
1 | > 200 µM | > 200 µM | > 200 µM | 99.6 ± 4.8 µM | > 80% | 42.23 ± 0.55 µM | 42.81 ± 0.10 µM | 39.28 ± 0.85 µM | > 80% | 48.83 ± 0.85 µM | 47.02 ± 0.39 µM | 43.17 ± 0.06 µM |  | O=C(O)Cc1cccc(O)c1 [3-(3′-Hydroxyphenyl)acetic acid, 3-(3′-hydroxyphenyl)acetic acid] | 327 µmol/L |  | 
2 | > 200 µM | > 200 µM |  | > 200 µM | > 80% | 52.74 ± 0.44 µM | 50.70 ± 0.11 µM | 49.95 ± 0.37 µM | > 80% | 45.51 ± 0.41 µM | 46.27 ± 0.58 µM | 46.28 ± 0.76 µM |  | O=C(O)CCc1cccc(O)c1 [3-(3′-Hydroxyphenyl)propanoic acid, 3-(3′-hydroxyphenyl)propanoic acid] | 1810 µmol/L |  | IC50 (Caco-2 cell line [1]; Homo sapiens, Caco-2, 24 h of incubation): > 200 µM; inhibition at 100 µM (SW480 cell line [2]; Homo sapiens, SW480, 100 μmol/L, 72 h, read-out: Percentage of inhibition of SW480 growth): 13.3%; Concentration in human fecal water ([6]; no dietary restriction or supplementation, ref 46 (Karlsson et al.)): 61 ± 34 µM; Mean concentration in human fecal water [6, 12]: 68 ± 93 µM; Range of concentration in human fecal water [6, 12]: 0.72 to 209 µmol/L
3 | > 200 µM | 116 ± 4.9 µM | 89.2 ± 3.1 µM | 58.2 ± 2.7 µM |  | 47.39 ± 1.22 µM | 40.37 ± 1.20 µM | 14.83 ± 0.84 µM |  | 0.61 ± 0.01 µM | 0.29 ± 0.01 µM | 0.52 ± 0.02 µM | 1.5 fold | O=c1c(O)c(-c2ccc(O)c(O)c2)oc2cc(O)cc(O)c12 [Quercetin, quercetin] |  | 3.1 times | Concentration of newly formed metabolite (SW480 cell line [4]; SW480, 24 h, substrate Quercetin-4′-O-glucoside 50 μmol/L): 52.70 ± 2.24 µM; Concentration of newly formed metabolite (SW480 cell line [4]; SW480, 48 h, substrate Quercetin-3-O-glucoside-4′-O-glucoside 50 μmol/L): 0.04 ± 0.00 µM; Concentration of newly formed metabolite (SW480 cell line [4]; SW480, 48 h, substrate Quercetin-4′-O-glucoside 50 μmol/L): 36.89 ± 0.52 µM; Concentration of newly formed metabolite (SW480 cell line [4]; SW480, 72 h, substrate Quercetin-3-O-glucoside-4′-O-glucoside 50 μmol/L): 0.07 ± 0.00 µM; Concentration of newly formed metabolite (SW480 cell line [4]; SW480, 72 h, substrate Quercetin-4′-O-glucoside 50 μmol/L): 12.78 ± 0.41 µM; Decrease in cell medium concentration (Caco-2 cell line [5]; 24 h): 99.5%; Absorption in the small intestine [7]: about 20%
4 |  |  |  |  |  | 2.98 ± 0.07 µM | 0.07 ± 0.00 µM | 0.01 ± 0.00 µM |  |  |  |  | 1.4 fold | O=c1c(O)c(-c2ccc(O[C@@H]3O[C@H](CO)[C@@H](O)[C@H](O)[C@H]3O)c(O)c2)oc2cc(O)cc(O)c12 [Quercetin-4′-O-glucoside, quercetin-4′-O-glucoside] |  | 2.5 times | IC50 (Caco-2 cell line [1]; Caco-2, 48 h of incubation): > 200 µM; IC50 (Caco-2 cell line [1]; Caco-2, 72 h of incubation): > 200 µM; IC50 (SW480 cell line [2]; SW480, 48 h of incubation): 144 ± 6.6 µM; IC50 (SW480 cell line [2]; SW480, 72 h of incubation): 102 ± 5.3 µM
